Assay results published in patent US20260193293A1, “PEPTIDES CAPABLE OF INHIBITING PROTEIN-PROTEIN INTERACTIONS AT GABAB1A SUBUNIT AND USES THEREOF” (UNIVERSITY OF COPENHAGEN, priority 2022, published 2026).
Like-named read-outs stand apart in the source and are kept apart here. Non-standard residues stand in square brackets, D forms with d. Residues, ends and D or L forms follow the SMILES beside them. Phe(4-tBu) = CC(C)(C)c1ccc(C[C@H](N)C(=O)O)cc1; Phe(4-NH2) = Nc1ccc(C[C@H](N)C(=O)O)cc1; Phe(4-F) = N[C@@H](Cc1ccc(F)cc1)C(=O)O; 2Nal = N[C@@H](Cc1ccc2ccccc2c1)C(=O)O

Assays:
[1] = In vitro plasma stability; conditions: for half-life / remaining at 48 h, 100 µM: human; for half-life: plasma; for remaining at 48 h, 100 µM / T1/2: human plasma; for T1/2: 37° C.
Protocol: For time-course assay, 360 μL human plasma was pre-warmed up at 37° C. for 15 min and then spiked with 40 μL of tested peptides (1 mM in 1×PBS). […] Subsequently, 100 μL acetonitrile was added into and then samples were incubated overnight at −20° C. After that, all samples were centrifuged at 13,400 rpm for 10 min and the supernatant was filtered and then analyzed by LC-MS and UPLC (Waters). The area under the curve (AUC) was determined and normalized to the value of the first time point. The half-life (T1/2) was obtained by fitting the data to the one-phase decay equation in GraphPad Prism 9 and expressed as the mean of three individual experiments. For end-point assay, 108 μL human plasma was pre-warmed up at 37° C. for 15 min and then spiked with 12 μL of tested peptides (1 mM in 1×PBS).

[2] = target: Sushi domains (SD1/2) protein; experiment: Fluorescence polarization (FP) competition assay with AJAP-1probe, calculated Ki; format: binding
Summary of the method: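 Ki values were derived from IC50s (sigmoidal fits, ≥ triplicate), with probe Kd obtained by saturation titration of SD1/2. Peptides displaced a 25 nM TAMRA-labelled probe; polarization read at 530/580 nm in 1% BSA-containing PBS, pH 7.4, room temperature.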

[3] = CPP tagged peptides overview, SD1/2 binding affinity, mean ± SEM, n ≥ 3, read-out: Ki
[4] = Table 1, affinity maturation, mean ± SEM, n ≥ 3, read-out: Ki
[5] = Table 16, ncAAs incorporated peptides, read-out: Ki (nM) mean ± SEM
[6] = Table 14, CPPs tagged peptides, read-out: Ki (nM) mean ± SEM

Row | Compound | half-life [1] [h] | Ki [2, 3] [nM] | Ki [2, 5] [nM] | Ki [2, 6] [nM] | other results
1 | CC[C@H](C)[C@H](NC(=O)[C@H](C)NC(=O)[C@H](Cc1c[nH]c2ccccc12)NC(=O)[C@@H]1CCCN1C(C)=O)C(=O)N[C@H](C(=O)N[C@@H](Cc1c[nH]c2ccccc12)C(=O)NCC(=O)N1CCC[C@H]1C(=O)N[C@H](C(=O)N[C@H](C(=O)N[C@@H](CO)C(=O)N[C@@H](CCCNC(=N)N)C(=O)N[C@@H](CCC(=O)O)C(=O)N[C@@H](CC(=O)O)C(N)=O)C(C)C)[C@@H](C)O)C(C)C [PIANPWT, Ac-PWAIVWGPTVSRED-NH2] (Ac-PWAIVWGPTVSRED-NH2) | 16 |  |  |  | Ki ([2]; purified peptides, read-out: Ki): 476 ± 19 nM
2 | CC[C@H](C)[C@H](NC(=O)[C@H](Cc1c[nH]c2ccccc12)NC(=O)[C@H](CC(=O)O)NC(=O)[C@H](CC(=O)O)NC(=O)[C@H](CC(=O)O)NC(=O)[C@H](CCC(=O)O)NC(C)=O)C(=O)N[C@@H](CC(=O)O)C(=O)N[C@@H](Cc1c[nH]c2ccccc12)C(=O)NCC(=O)N1CCC[C@H]1C(=O)N[C@H](C(=O)N[C@@H](CO)C(=O)N[C@@H](CC(=O)O)C(=O)N[C@@H](CC(=O)O)C(=O)N[C@@H](CC(=O)O)C(N)=O)[C@@H](C)O [Peptide 17] (Ac-EDDDWIDWGPTSDDD-NH2) | > 48 | 4 ± 0.3 |  |  | Ki [2, 4]: 4 ± 0.3 nM; Ki ([2]; Table 13, peptides for affinity maturation, read-out: Ki (nM) mean ± SEM): 4 ± 0.3 nM
3 | CC[C@H](C)[C@H](NC(=O)[C@H](Cc1ccc2ccccc2c1)NC(=O)[C@H](CC(=O)O)NC(=O)[C@H](CC(=O)O)NC(=O)[C@H](CC(=O)O)NC(=O)[C@H](CCC(=O)O)NC(C)=O)C(=O)N[C@@H](CC(=O)O)C(=O)N[C@@H](Cc1c[nH]c2ccccc12)C(=O)NCC(=O)N1CCC[C@H]1C(=O)N[C@H](C(=O)N[C@@H](CO)C(=O)N[C@@H](CC(=O)O)C(=O)N[C@@H](CC(=O)O)C(=O)N[C@@H](CC(=O)O)C(N)=O)[C@@H](C)O [Peptide 21] (Ac-EDDD[2Nal]IDWGPTSDDD-NH2) | > 48 | 5.3 ± 0.2 | 5.3 ± 0.2 |  | Ki [2, 4]: 5.3 ± 0.2 nM
4 | CC[C@H](C)[C@H](NC(=O)[C@H](Cc1c[nH]c2ccccc12)NC(=O)[C@H](CC(=O)O)NC(=O)[C@H](CC(=O)O)NC(=O)[C@H](CC(=O)O)NC(=O)[C@H](CCC(=O)O)NC(=O)[C@H](CCCNC(=N)N)NC(=O)[C@H](CCCNC(=N)N)NC(=O)[C@H](CCCNC(=N)N)NC(C)=O)C(=O)N[C@@H](CC(=O)O)C(=O)N[C@@H](Cc1c[nH]c2ccccc12)C(=O)N[C@@H](Cc1ccc(O)cc1)C(=O)N[C@@H](CC(=O)O)C(=O)N[C@@H](CO)C(=O)N[C@@H](CC(=O)O)C(=O)N[C@@H](CC(=O)O)C(=O)N[C@@H](CC(=O)O)C(N)=O [Peptide R3-16] (Ac-RRREDDDWIDWYDSDDD-NH2) |  |  |  | 6.4 ± 0.1 | remaining at 48 h, 100 µM [1]: ~80%
5 | CC[C@H](C)[C@H](NC(=O)[C@H](Cc1c[nH]c2ccccc12)NC(=O)[C@H](CC(=O)O)NC(=O)[C@H](CC(=O)O)NC(=O)[C@H](CC(=O)O)NC(=O)[C@H](CCC(=O)O)NC(=O)[C@H](CCCNC(=N)N)NC(=O)[C@H](CCCNC(=N)N)NC(=O)[C@H](CCCNC(=N)N)NC(C)=O)C(=O)N[C@@H](CC(=O)O)C(=O)N[C@@H](Cc1c[nH]c2ccccc12)C(=O)NCC(=O)N1CCC[C@H]1C(=O)N[C@H](C(=O)N[C@@H](CO)C(=O)N[C@@H](CC(=O)O)C(=O)N[C@@H](CC(=O)O)C(=O)N[C@@H](CC(=O)O)C(N)=O)[C@@H](C)O [Peptide R3-17] (Ac-RRREDDDWIDWGPTSDDD-NH2) |  |  |  | 9 ± 0.2 | remaining at 48 h, 100 µM [1]: ~80%
6 | CC[C@H](C)[C@H](NC(=O)[C@H](Cc1ccc2ccccc2c1)NC(=O)[C@H](CC(=O)O)NC(=O)[C@H](CC(=O)O)NC(=O)[C@H](CC(=O)O)NC(=O)[C@H](CCC(=O)O)NC(=O)[C@H](CCCNC(=N)N)NC(=O)[C@H](CCCNC(=N)N)NC(=O)[C@H](CCCNC(=N)N)NC(=O)[C@H](CCCNC(=N)N)NC(C)=O)C(=O)N[C@@H](CC(=O)O)C(=O)N[C@@H](Cc1c[nH]c2ccccc12)C(=O)N[C@@H](Cc1ccc(O)cc1)C(=O)N[C@@H](CC(=O)O)C(=O)N[C@@H](CO)C(=O)N[C@@H](CC(=O)O)C(=O)N[C@@H](CC(=O)O)C(=O)N[C@@H](CC(=O)O)C(N)=O [Peptide R4-20] (Ac-RRRREDDD[2Nal]IDWYDSDDD-NH2) | > 48 | 12 ± 1 |  | 15 ± 1 | T1/2 [1]: >48 h; fold higher affinity than 4R-16 ([2]; 4R tagged peptides): about 2 fold
7 | CC[C@H](C)[C@H](NC(=O)[C@H](Cc1ccc2ccccc2c1)NC(=O)[C@H](CC(=O)O)NC(=O)[C@H](CC(=O)O)NC(=O)[C@H](CC(=O)O)NC(=O)[C@H](CCC(=O)O)NC(=O)[C@H](CCCNC(=N)N)NC(=O)[C@H](CCCNC(=N)N)NC(=O)[C@H](CCCNC(=N)N)NC(=O)[C@H](CCCNC(=N)N)NC(C)=O)C(=O)N[C@@H](CC(=O)O)C(=O)N[C@@H](Cc1c[nH]c2ccccc12)C(=O)NCC(=O)N1CCC[C@H]1C(=O)N[C@H](C(=O)N[C@@H](CO)C(=O)N[C@@H](CC(=O)O)C(=O)N[C@@H](CC(=O)O)C(=O)N[C@@H](CC(=O)O)C(N)=O)[C@@H](C)O [Peptide R4-21] (Ac-RRRREDDD[2Nal]IDWGPTSDDD-NH2) | > 48 | 13 ± 1 |  | 13 ± 1 | T1/2 [1]: >48 h
8 | CC[C@H](C)[C@H](NC(=O)[C@H](Cc1c[nH]c2ccccc12)NC(=O)[C@H](CC(=O)O)NC(=O)[C@H](CC(=O)O)NC(=O)[C@H](CC(=O)O)NC(=O)[C@H](CCC(=O)O)NC(=O)[C@H](CCCNC(=N)N)NC(=O)[C@H](CCCNC(=N)N)NC(=O)[C@H](CCCNC(=N)N)NC(=O)[C@H](CCCNC(=N)N)NC(=O)[C@H](CCCNC(=N)N)NC(=O)[C@H](CCCNC(=N)N)NC(=O)[C@H](CCCNC(=N)N)NC(=O)[C@H](CCCNC(=N)N)NC(C)=O)C(=O)N[C@@H](CC(=O)O)C(=O)N[C@@H](Cc1c[nH]c2ccccc12)C(=O)N[C@@H](Cc1ccc(O)cc1)C(=O)N[C@@H](CC(=O)O)C(=O)N[C@@H](CO)C(=O)N[C@@H](CC(=O)O)C(=O)N[C@@H](CC(=O)O)C(=O)N[C@@H](CC(=O)O)C(N)=O [Peptide R8-16] (Ac-RRRRRRRREDDDWIDWYDSDDD-NH2) | > 48 | 107 ± 1 |  | 107 ± 2 | remaining at 48 h, 100 µM [1]: ~50%
9 | EDDSDVWW(Aphe)GADTD (Ac-EDDSDVWW[Phe(4-NH2)]GADTD-NH2; SMILES CC(=O)N[C@@H](CCC(=O)O)C(=O)N[C@@H](CC(=O)O)C(=O)N[C@@H](CC(=O)O)C(=O)N[C@@H](CO)C(=O)N[C@@H](CC(=O)O)C(=O)N[C@H](C(=O)N[C@@H](Cc1c[nH]c2ccccc12)C(=O)N[C@@H](Cc1c[nH]c2ccccc12)C(=O)N[C@@H](Cc1ccc(N)cc1)C(=O)NCC(=O)N[C@@H](C)C(=O)N[C@@H](CC(=O)O)C(=O)N[C@H](C(=O)N[C@@H](CC(=O)O)C(N)=O)[C@@H](C)O)C(C)C) |  |  | 102 ± 1 |  | 
10 | ETEFlaWGPTGDED (Ac-ETEFI[dA]WGPTGDED-NH2) |  |  |  |  | Ki ([2]; Table 8, in μM, read-out: Ki (nM) mean ± SEM): > 6250 nM

The next lines start with results.

Row | half-life [1] [h] | Ki [2, 3] [nM] | Ki [2, 5] [nM] | Ki [2, 6] [nM] | Compound | other results
11 | > 48 | 58 ± 3 |  | 58.1 ± 3 | CC[C@H](C)[C@H](NC(=O)[C@H](Cc1c[nH]c2ccccc12)NC(=O)[C@H](CC(=O)O)NC(=O)[C@H](CC(=O)O)NC(=O)[C@H](CC(=O)O)NC(=O)[C@H](CCC(=O)O)NC(=O)[C@H](CCCNC(=N)N)NC(=O)[C@H](CCCNC(=N)N)NC(=O)[C@H](CCCNC(=N)N)NC(=O)[C@H](CCCNC(=N)N)NC(=O)[C@H](CCCNC(=N)N)NC(=O)[C@H](CCCNC(=N)N)NC(=O)[C@H](CCCNC(=N)N)NC(=O)[C@H](CCCNC(=N)N)NC(C)=O)C(=O)N[C@@H](CC(=O)O)C(=O)N[C@@H](Cc1c[nH]c2ccccc12)C(=O)NCC(=O)N1CCC[C@H]1C(=O)N[C@H](C(=O)N[C@@H](CO)C(=O)N[C@@H](CC(=O)O)C(=O)N[C@@H](CC(=O)O)C(=O)N[C@@H](CC(=O)O)C(N)=O)[C@@H](C)O [Peptide R8-17] (Ac-RRRRRRRREDDDWIDWGPTSDDD-NH2) | remaining at 48 h, 100 µM [1]: ~50%
12 |  |  | 184 ± 3 |  | EDDS(Aphe)VWWGGADTD (Ac-EDDS[Phe(4-NH2)]VWWGGADTD-NH2) | 
13 |  |  | 269 ± 3 |  | EDDS(Buphe)VWWGGADTD (Ac-EDDS[Phe(4-tBu)]VWWGGADTD-NH2) | 
14 |  |  | 117 ± 2 |  | EDDS(Fphe)VWWGGADTD (Ac-EDDS[Phe(4-F)]VWWGGADTD-NH2) | 
